Test results as given in patent publication US10138249B2, “Triazolopyridines and triazolopyrazines as LSD1 inhibitors” (priority 2014, dated 2018).
Where two headings read alike, the source gives them in different places.

Target: LSD-1 enzyme (Homo sapiens (Human), UniProt O60341)
Type: biochemical
Description: LANCE LSD1/KDM1A demethylase assay-10 μL of 1 nM LSD-1 enzyme (ENZO BML-SE544-0050) in the assay buffer (50 mM Tris, pH 7.5, 0.01% Tween-20, 25 mM NaCl, 5 mM DTT) were preincubated for 1 hour at 25° C. with 0.8 μL compound/DMSO dotted in black 384 well polystyrene plates. […] After stopping the reactions plates were incubated for 30 minutes and read on a PHERAstar FS plate reader (BMG Labtech).

[1] = 1 nM LSD-1 enzyme, 1 hour preincubation at 25° C., 0.4 μM biotin-labeled histone H3 peptide substrate

Row | Compound | IC50 [1] [nM] | IC50 [nM]
1 | Cc1ccc(-c2c(-c3ccc(C#N)c(F)c3)cc(OC[C@@H]3CCNC3)c3nncn23)cc1 [Example 2, 2-fluoro-4-{5-(4-methylphenyl)-8-[(3R)-pyrrolidin-3-ylmethoxy][1,2,4]triazolo[4,3-a]pyridin-6-yl}benzonitrile] | ≤ 50 | 
2 | Cc1ccc(-c2c(-c3ccc(C#N)cc3)cc(OC[C@@H]3CCNC3)c3n[nH]c(=O)n23)cc1 [Example 3, 4-{5-(4-methylphenyl)-3-oxo-8-[(3R)-pyrrolidin-3-ylmethoxy]-2,3-dihydro[1,2,4]triazolo[4,3-a]pyridin-6-yl}benzonitrile] | ≤ 50 | 
3 | Cc1ccc(-c2c(-c3ccc(C#N)cc3)cc(OC[C@@H]3CCNC3)c3nn(CC4CCNCC4)c(=O)n23)cc1 [Example 13, 4-{5-(4-methylphenyl)-3-oxo-2-(piperidin-4-ylmethyl)-8-[(3R)-pyrrolidin-3-ylmethoxy]-2,3-dihydro[1,2,4]triazolo[4,3-a]pyridin-6-yl}benzonitrile] | ≤ 50 | 
4 | Cc1ccc(-c2c(-c3ccc(C#N)cc3)cc(OC[C@@H]3CCNC3)c3nn(CCC#N)c(=O)n23)cc1 [Example 6, 4-{2-(2-cyanoethyl)-5-(4-methylphenyl)-3-oxo-8-[(3R)-pyrrolidin-3-ylmethoxy]-2,3-dihydro[1,2,4]triazolo[4,3-a]pyridin-6-yl}benzonitrile] | ≤ 50 | 
5 | Cc1ccc(-c2c(-c3ccc(C#N)cc3)cc(OC[C@@H]3CCNC3)c3nn(CCOc4ccccc4)c(=O)n23)cc1 [Example 14, 4-{5-(4-methylphenyl)-3-oxo-2-(2-phenoxyethyl)-8-[(3R)-pyrrolidin-3-ylmethoxy]-2,3-dihydro[1,2,4]triazolo[4,3-a]pyridin-6-yl}benzonitrile] | ≤ 50 | 
6 | Cc1ccc(-c2c(-c3ccc(C#N)cc3)cc(OC[C@@H]3CCNC3)c3nncn23)cc1 [Example 1, 4-{5-(4-methylphenyl)-8-[(3R)-pyrrolidin-3-ylmethoxy][1,2,4]triazolo[4,3-a]pyridin-6-yl}benzonitrile] | ≤ 50 | 
7 | Cc1ccc(-c2c(-c3ccc(C#N)cc3)cc(OC[C@@H]3CCNC3)c3nn(CCN(C)C)c(=O)n23)cc1 [Example 15, 4-{2-[2-(dimethylamino)ethyl]-5-(4-methylphenyl)-3-oxo-8-[(3R)-pyrrolidin-3-ylmethoxy]-2,3-dihydro[1,2,4]triazolo[4,3-a]pyridin-6-yl}benzonitrile] | ≤ 50 | 
8 | Cc1ccc(-c2c(-c3ccc(C#N)cc3)cc(OC[C@@H]3CCNC3)c3nn(Cc4ccc(C#N)cc4)c(=O)n23)cc1 [Example 17, 4-{2-(4-cyanobenzyl)-5-(4-methylphenyl)-3-oxo-8-[(3R)-pyrrolidin-3-ylmethoxy]-2,3-dihydro[1,2,4]triazolo[4,3-a]pyridin-6-yl}benzonitrile] | ≤ 50 | 
9 | Cc1ccc(-c2c(-c3ccc(C#N)cc3)cc(OC[C@@H]3CCNC3)c3nn(Cc4ccccc4)c(=O)n23)cc1 [Example 16, 4-{2-benzyl-5-(4-methylphenyl)-3-oxo-8-[(3R)-pyrrolidin-3-ylmethoxy]-2,3-dihydro[1,2,4]triazolo[4,3-a]pyridin-6-yl}benzonitrile] |  | < 50
10 | Cc1ccc(-c2c(-c3ccc(C#N)cc3)cc(OC[C@@H]3CCNC3)c3nn(CC#N)c(=O)n23)cc1 [Example 5, (R)-4-(2-(cyanomethyl)-3-oxo-8-(pyrrolidin-3-ylmethoxy)-5-p-tolyl-2,3-dihydro-[1,2,4]triazolo[4,3-a]pyridin-6-yl)benzonitrile] |  | < 50
11 | Cc1ccc(-c2c(-c3ccc(C#N)cc3)cc(OC[C@@H]3CCNC3)c3nn(CC4CCCC4)c(=O)n23)cc1 [Example 7, 4-{2-(cyclopentylmethyl)-5-(4-methylphenyl)-3-oxo-8-[(3R)-pyrrolidin-3-ylmethoxy]-2,3-dihydro[1,2,4]triazolo[4,3-a]pyridin-6-yl}benzonitrile] |  | < 50
